Active and inactive are the calls of the source. The calls are words filed in the database; no cut-off is given here.
How the values were obtained:
Mus musculus [1] = assay: Antiinflammatory activity in house dust-mite-induced BALB/c mouse model of methacholine-induced airway hyperreactivity assessed as reduction in methacholine-induced tissue damping at 6 mg/kg , ip administered for 2 weeks after methacholine-stimulation at 50 mg/ml measured 24 hrs post-HDM challenge; assay type: functional; design: scale not given: the % may be the effect or the level left
Mus musculus [2] = assay: Effect on IL-10 level in dust-mite-induced BALB/c mouse model of airway inflammation assessed as greater than 2 fold induction at 6 mg/kg, sc administered for 2 weeks and measured 24 hrs post-HDM challenge by MSD multiplex assay; assay type: functional, organism-based
Mus musculus [3] = assay: Effect on KC 10 level in dust-mite-induced BALB/c mouse model of airway inflammation assessed as greater than 2 fold induction at 6 mg/kg, sc administered for 2 weeks and measured 24 hrs post-HDM challenge by MSD multiplex assay; assay type: functional, organism-based
Mus musculus [4] = assay: Effect on IL-23 level in dust-mite-induced BALB/c mouse model of airway inflammation assessed as greater than 2 fold induction at 6 mg/kg, sc administered for 2 weeks and measured 24 hrs post-HDM challenge by MSD multiplex assay; assay type: functional, organism-based
HBEC3-KT [5] = assay: Antiinflammatory activity in human HBEC3-KT cells assessed as fold increase in IL-1RA expression at 10 uM measured after 24 hrs by ELISA relative to control; assay type: functional
[6] = Retention time of the compound by HPLC analysis; assay type: physicochemical
Mus musculus [7] = assay: Effect on IL-17C level in dust-mite-induced BALB/c mouse model of airway inflammation assessed as greater than 2 fold induction at 6 mg/kg, sc administered for 2 weeks and measured 24 hrs post-HDM challenge by MSD multiplex assay; assay type: functional, organism-based
Mus musculus [8] = assay: Effect on IL-17A level in dust-mite-induced BALB/c mouse model of airway inflammation assessed as greater than 2 fold induction at 6 mg/kg, sc administered for 2 weeks and measured 24 hrs post-HDM challenge by MSD multiplex assay; assay type: functional, organism-based
Mus musculus [9] = assay: Effect on IL-21 level in dust-mite-induced BALB/c mouse model of airway inflammation assessed as greater than 2 fold induction at 6 mg/kg, sc administered for 2 weeks and measured 24 hrs post-HDM challenge by MSD multiplex assay; assay type: functional, organism-based
Mus musculus [10] = assay: Antiinflammatory activity in house dust-mite-induced BALB/c mouse model of airway inflammation assessed as suppression of total leukocyte count in BALF at 6 mg/kg, sc administered for 2 weeks and measured 24 hrs post-HDM challenge by Wright-Giemsa staining based microscopy; assay type: functional
Mus musculus [11] = assay: Effect on MIP3alpha level in dust-mite-induced BALB/c mouse model of airway inflammation assessed as greater than 2 fold induction at 6 mg/kg, sc administered for 2 weeks and measured 24 hrs post-HDM challenge by MSD multiplex assay; assay type: functional, organism-based
HBEC3-KT [12] = assay: Antiinflammatory activity in human HBEC3-KT cells assessed as fold increase in STC1 expression at 10 uM measured after 24 hrs by ELISA relative to control; assay type: functional
Mus musculus [13] = assay: Effect on MIP2 level in dust-mite-induced BALB/c mouse model of airway inflammation assessed as greater than 2 fold induction at 6 mg/kg, sc administered for 2 weeks and measured 24 hrs post-HDM challenge by MSD multiplex assay; assay type: functional, organism-based
Mus musculus [14] = assay: Antiinflammatory activity in house dust-mite-induced BALB/c mouse model of methacholine-induced airway hyperreactivity assessed as reduction in methacholine-induced tissue elastance at 6 mg/kg , ip administered for 2 weeks after methacholine-stimulation at 50 mg/ml measured 24 hrs post-HDM challenge; assay type: functional; design: scale not given: the % may be the effect or the level left
Mus musculus [15] = assay: Effect on TNF 1 level in dust-mite-induced BALB/c mouse model of airway inflammation assessed as greater than 2 fold induction at 6 mg/kg, sc administered for 2 weeks and measured 24 hrs post-HDM challenge by MSD multiplex assay; assay type: functional, organism-based
HBEC3-KT [16] = assay: Antiinflammatory activity in human HBEC3-KT cells assessed as effect on MCP1 expression measured after 24 hrs by ELISA relative to control; assay type: functional, cell-based
Mus musculus [17] = assay: Effect on IL-30 level in dust-mite-induced BALB/c mouse model of airway inflammation assessed as greater than 2 fold induction at 6 mg/kg, sc administered for 2 weeks and measured 24 hrs post-HDM challenge by MSD multiplex assay; assay type: functional, organism-based
Mus musculus [18] = assay: Effect on IL-31 level in dust-mite-induced BALB/c mouse model of airway inflammation assessed as greater than 2 fold induction at 6 mg/kg, sc administered for 2 weeks and measured 24 hrs post-HDM challenge by MSD multiplex assay; assay type: functional, organism-based
Mus musculus [19] = assay: Antiinflammatory activity in house dust-mite-induced BALB/c mouse model of airway inflammation assessed as suppression of total eosinophil count in BALF at 6 mg/kg, sc administered for 2 weeks and measured 24 hrs post-HDM challenge by Wright-Giemsa staining based microscopy; assay type: functional
HBEC3-KT [20] = assay: Immunomodulatory activity in human HBEC3-KT cells assessed as suppression of INFgamma-induced IL-33 at 10 uM preincubated for 30 mins followed by INFgamma stimulation and measured after 24 hrs by Western blot analysis; assay type: functional
[21] = Stability of the compound in human HBEC3-KT cells assessed as compound degradation ay 10 uM measured after 16 hrs by FRET assay relative to control; assay type: functional
Mus musculus [22] = assay: Antiinflammatory activity in house dust-mite-induced BALB/c mouse model of airway inflammation assessed as suppression of IL-33 abundance in lung tissue lysate at 6 mg/kg, sc administered for 2 weeks and measured 24 hrs post-HDM challenge by ELISA; assay type: functional
Mus musculus [23] = assay: Effect on IL-25 level in dust-mite-induced BALB/c mouse model of airway inflammation assessed as greater than 2 fold induction at 6 mg/kg, sc administered for 2 weeks and measured 24 hrs post-HDM challenge by MSD multiplex assay; assay type: functional, organism-based
Mus musculus [24] = assay: Antiinflammatory activity in house dust-mite-induced BALB/c mouse model of methacholine-induced airway hyperreactivity assessed as reduction in methacholine-induced tissue damping at 6 mg/kg , ip administered for 2 weeks after methacholine-stimulation at 12 mg/ml measured 24 hrs post-HDM challenge; assay type: functional, organism-based
Mus musculus [25] = assay: Effect on IL-2 level in dust-mite-induced BALB/c mouse model of airway inflammation assessed as greater than 2 fold induction at 6 mg/kg, sc administered for 2 weeks and measured 24 hrs post-HDM challenge by MSD multiplex assay; assay type: functional, organism-based
Mus musculus [26] = assay: Effect on IP10 level in dust-mite-induced BALB/c mouse model of airway inflammation assessed as greater than 2 fold induction at 6 mg/kg, sc administered for 2 weeks and measured 24 hrs post-HDM challenge by MSD multiplex assay; assay type: functional, organism-based
HBEC3-KT [27] = assay: Cytotoxicity against human HBEC3-KT incubated for 24 hrs by LDH assay; assay type: functional
Mus musculus [28] = assay: Antiinflammatory activity in house dust-mite-induced BALB/c mouse model of methacholine-induced airway hyperreactivity assessed as reduction in methacholine-induced newtonian resistance at 6 mg/kg , ip administered for 2 weeks after methacholine-stimulation at 50 mg/ml measured 24 hrs post-HDM challenge; assay type: functional; design: scale not given: the % may be the effect or the level left
Mus musculus [29] = assay: Effect on IFNgamma level in dust-mite-induced BALB/c mouse model of airway inflammation assessed as greater than 2 fold induction at 6 mg/kg, sc administered for 2 weeks and measured 24 hrs post-HDM challenge by MSD multiplex assay; assay type: functional, organism-based

Substance	Activity (Mus musculus [1])	Activity (Mus musculus [2])	Activity (Mus musculus [3])	Activity (Mus musculus [4])	Retention_time [6] [min]	Activity (Mus musculus [7])	Activity (Mus musculus [8])	Activity (Mus musculus [9])	Activity (Mus musculus [10])	Activity (Mus musculus [11])	fold change (FC) (HBEC3-KT [12])	Activity (Mus musculus [13])	Activity (Mus musculus [14])	Activity (Mus musculus [15])	Activity (HBEC3-KT [16])	Activity (Mus musculus [17])	Activity (Mus musculus [18])	Activity (Mus musculus [19])	Activity [21] [%]	Activity (Mus musculus [22])	further results
H-VQRWLIVRRIRK-OH	64%	inactive	inactive	inactive	14.04	inactive	inactive	inactive	inactive	inactive	inactive	inactive	63%	inactive	inactive	inactive	inactive	inactive	<5	inactive	Activity (HBEC3-KT [5]): inactive; Activity (HBEC3-KT [20]): inactive; Activity (Mus musculus [23]): inactive; Activity (Mus musculus [24]): Active; Activity (Mus musculus [25]): inactive; Activity (Mus musculus [26]): inactive; Activity (HBEC3-KT [27]): inactive; Activity (Mus musculus [28]): 39%; Activity (Mus musculus [29]): inactive
H-VQRWLIVWRIRK-OH	Active	inactive	inactive	inactive	16.16	inactive	inactive	inactive	66%	inactive	4	inactive	Active	inactive	inactive	inactive	inactive	63%	<5	>40%	fold change (FC) (HBEC3-KT [5]): 2.6; Activity (HBEC3-KT [20]; 0.5 h): 85%; Activity (Mus musculus [23]): inactive; Activity (Mus musculus [24]): Active; Activity (Mus musculus [25]): inactive; Activity (Mus musculus [26]): inactive; Activity (HBEC3-KT [27]): <=15%; Activity (Mus musculus [28]): Active; Activity (Mus musculus [29]): inactive

Reference: ChEMBL document CHEMBL5046216, “Disrupting Tryptophan in the Central Hydrophobic Region Selectively Mitigates Immunomodulatory Activities of the Innate Defence Regulator Peptide IDR-1002” (J Med Chem, 2021)
